# In PubChem BioAssay (NCI):
# Several values for one entry are separate records, joined by “and”; a condition that tells them apart may be missing. Equal values may be shown once.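 Interpolation was linear, between the two tested concentrations surrounding the appropriate level; five concentrations were tested over 48 hours in 96-well plates. Abbreviation: GI50, concentration required for 50% inhibition of growth. TGI marks complete inhibition of growth.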
# How the values were obtained:
# Assay in all cases: inhibition of tumour cell growth, NCI panel, 48 h
# HCT-15 colon = system: HCT-15 colon
# KM12 colon = system: KM12 colon
# NCI-H226 lung = system: NCI-H226 lung
# T-47D breast = system: T-47D breast
# ACHN renal = system: ACHN renal
# BT-549 breast = system: BT-549 breast
# OVCAR-8 ovarian = system: OVCAR-8 ovarian
# HCT-116 colon = system: HCT-116 colon
# NCI/ADR-RES ovarian = system: NCI/ADR-RES ovarian
# HCC-2998 colon = system: HCC-2998 colon
SMILES,TGI (HCT-15 colon),TGI (KM12 colon),TGI (NCI-H226 lung),TGI (T-47D breast),TGI (ACHN renal),TGI (BT-549 breast),TGI (OVCAR-8 ovarian),TGI (HCT-116 colon),TGI (NCI/ADR-RES ovarian),TGI (HCC-2998 colon),GI50 (KM12 colon),GI50 (NCI-H226 lung),GI50 (T-47D breast),GI50 (OVCAR-8 ovarian),GI50 (HCT-116 colon),GI50 (HCT-15 colon),GI50 (ACHN renal),GI50 (HCC-2998 colon)
CCc1[nH]nc(C(N)=O)c1N=NN(C)C,> 100 µM,> 100 µM,> 100 µM,> 100 µM,> 100 µM,> 100 µM,> 100 µM,> 100 µM,> 100 µM,> 100 µM,,,,,,,,
COc1ccccc1NC(=O)CC(=O)n1nc(C)c(N=Nc2ccccc2Cl)c1C,> 100 µM,> 100 µM,> 100 µM,> 100 µM,> 100 µM,> 100 µM,> 100 µM,> 100 µM,> 100 µM,> 100 µM,,,,,,,,
CN(/N=C/c1ccccc1O)c1ccc2ccccc2n1,> 100 µM,65.2 µM,> 100 µM,50.4 µM,66.6 µM,61.1 µM,> 100 µM,> 100 µM,> 100 µM,,,,,,,,,
Cc1ccc2[nH]c(O)c(N=Nc3ccccc3[N+](=O)[O-])c2c1,> 100 µM,> 40.3 µM,47.5 µM,14 µM,,> 94.3 µM,> 33.9 µM,12.2 µM,> 40.2 µM,> 100 µM,,,,,,,,
O=C(O)CN1C(=O)CN=C(c2ccccn2)c2cc(Cl)ccc21,> 100 µM,> 100 µM,> 100 µM,> 100 µM,> 100 µM,> 100 µM,> 100 µM,> 100 µM,> 100 µM,,,,,,,,,
O=[N+]([O-])c1cc(I)cc(/C=N/NS(=O)(=O)c2ccc(Cl)cc2)c1O,38.7 µM,34.6 µM,,,51.4 µM,,37.6 µM,41.3 µM,,46.3 µM,,,,,,,,
O=C(O)CCSC(=O)Nc1cccc2ccccc12,> 100 µM,> 100 µM,> 100 µM,,> 100 µM,,> 100 µM,> 100 µM,,> 100 µM,,,,,,,,
CCc1cccc(C(C)CC)c1NC(=O)C(=O)Cc1nc2ccccc2o1 (stereo unspecified),> 50 µM,> 50 µM,> 50 µM,,> 50 µM,,> 50 µM,> 50 µM,,> 50 µM,,,,,,,,
COc1ccc2c(c1)C(=O)c1c-2c(N2CCN(C(=O)CCNCCNCCN)CC2)nc2ccccc12,,62.2 µM,78.4 µM,15.6 µM,,,72.2 µM,3.7 µM,,,4.94 µM,22.6 µM,3.43 µM,19.9 µM,1.85 µM,,,
CC(C)CCCCCCCCCCCCC(=O)NCC(=O)NC1C(C)OC(Nc2ncnc3nc[nH]c23)C(O)C1O (stereo unspecified),3.84 µM,0.208 µM,,,0.00666 µM,,0.00924 µM and 0.0182 µM,,0.0716 µM,,0.000442 µM,,,0.00187 µM,,0.573 µM,0.00153 µM,0.00121 µM
CN(C)CCN(C)C(=O)c1cccc2cccc(C(=O)O)c12,> 100 µM,,> 100 µM,,> 100 µM,,> 100 µM,> 100 µM,,> 100 µM,,,,,,,,
O=C(C=Nc1ccccc1S)c1ccco1,27.4 µM,31.3 µM,,,> 100 µM,,27.3 µM,10.4 µM,,36.6 µM,,,,,,,> 100 µM,20.6 µM
